Experimental data: paper PMC4710668, “Bioactivation of food genotoxicants 5-hydroxymethylfurfural and furfuryl alcohol by sulfotransferases from human, mouse and rat: a comparative study” (Archives of Toxicology, 2014)

Columns and labels:
Experiment in all cases: FFA sulfoconjugation assay (N6-MF-A formation with adenosine as scavenger)
Type in all cases: biochemical
rSult2a3 = target: T1, rSult2a3 (Rattus norvegicus, UniProt P22789)
T1 construct: made in house; host or cells: Salmonella typhimurium TA1538 (cytosolic fraction, enzyme not purified)
T1 sequence (P22789 2-284 limits assumed): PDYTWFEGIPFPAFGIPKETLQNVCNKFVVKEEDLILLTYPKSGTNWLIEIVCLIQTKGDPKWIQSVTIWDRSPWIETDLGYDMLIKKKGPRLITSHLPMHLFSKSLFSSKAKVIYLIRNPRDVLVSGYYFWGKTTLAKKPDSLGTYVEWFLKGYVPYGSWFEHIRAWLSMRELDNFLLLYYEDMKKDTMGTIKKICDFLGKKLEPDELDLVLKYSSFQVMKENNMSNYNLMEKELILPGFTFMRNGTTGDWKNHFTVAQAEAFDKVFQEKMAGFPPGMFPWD
Protocol: (§1) Cytosolic fractions containing individual SULT forms were prepared from transgenic S. typhimurium TA1538. Table S1 in the Supplementary Material provides a summary of the thirty SULTs used in the current study together with references describing the cloning of the respective S. typhimurium TA1538 strains. The expressed SULT forms are denoted with the prefixes h, m and r for human, mouse and rat enzymes, respectively. Bacteria were grown in Luria Broth medium containing ampicillin (100 µg/ml) by stirring for 8 h at 200 revolutions/min at 37 °C. The bacterial suspensions were centrifuged at 5,000 g for 10 min. The sediments were washed twice with 25 ml of 10 mM potassium phosphate buffer (pH 7.4)/50 mM potassium chloride (KCP buffer) and centrifuged again. The pellets were taken up in 800 µl KCP buffer and sonicated thrice for 15 s with 30 s pauses in between. The soluble fraction was attained by centrifuging for 1 h at 100,000 g. The supernatants (in the following termed cytosolic preparations) were frozen at −80 °C. The protein concentrations were determined according to a bicinchoninic acid (BCA) assay protocol. The SULT concentrations in the cytosolic preparations were estimated after electrophoretic separation and immunodetection using inclusion bodies of different SULT forms as standards (Teubner et al. [2007]). The preparation of SULT inclusion bodies and the immunodetection of SULTs is described in the Supplementary Material, which also contains a representative immunoblot of different amounts of rSult1a1standard and a cytosolic preparation of S. typhimurium expressing rSult1a1 (Fig. S1).
(§2) The reaction mixtures were prepared as described for HMF. In addition, they contained 10 mM adenosine as a nucleophilic scavenger. Following incubation for 20 min at 37 °C, sulfoconjugation reactions were stopped by adding 100 µl cold methanol containing 175 fmol of [^15N5]N ^6-MF-A as the internal standard, mixed and centrifuged at 15,000 g for 10 min. The clear supernatants were subjected to UPLC-MS/MS analyses. Incubations were performed as quadruplicates. At higher concentrations, FFA reacts spontaneously with adenosine at low, but detectable, levels. To correct for the SULT-independent adduct formation, mixtures with SULT-deficient cytosols were carried along simultaneously in duplicate. Controls were subtracted from the experimental samples.
(§3) The ribonucleoside adduct N ^6-((furan-2-yl)methyl)-adenosine (N ^6-MF-A) was analyzed by isotope-dilution UPLC-MS/MS with the same system described above using a HSS T3 column (1.8 µm, 2.1 × 100 mm, Waters). Samples of 8 µl were eluted with 10 mM ammonium bicarbonate buffer, pH 8.0 (A) and methanol (B) using an 6-min gradient from 98 % solvent A to 15 % solvent A at 0.35 ml/min flow rate (Yin et al. [2013]). The electrospray interface of the mass spectrometer operated in the positive ion mode. The fragmentations of N ^6-MF-A into the aglycone cation [N ^6-((furan-2-yl)methyl)-adenine-H]^+ (m/z = 348.1 → 216.1), the cleavage of the 2-methylfuranyl cation (m/z = 348.1 → 81.0) and the release of [N ^6-methyl-adenine-H]^+ (m/z = 348.1 → 148.0) were monitored together with the corresponding fragmentations of the isotope-labeled internal standard [^15N5]N ^6-MF-A for the formation of the aglycone (m/z = 353.1 → 221.1), the 2-methylfuran cation (m/z = 353.1 → 81.0) and ^15N5-labeled N ^6-methyl-adenine (m/z = 353.1 → 153.0). The N ^6-MF-A content of the incubation mixture was calculated from the ratio of peak areas resulting from the total ion current of all three MRM signals of the analyte. For the fragmentation of N ^6-MF-A ([^15N5]N ^6-MF-A), collision energies were 20, 25 and 35 eV for the transitions m/z = 348.1 → 216.1 (m/z = 353.1 → 221.1), m/z = 348.1 → 148.0 (m/z = 353.1 → 153.0) and m/z = 348.1 → 81.0 (m/z = 353.1 → 81.0), respectively. […]

rSult2a1 = target: T2, rSult2a1 (Rattus norvegicus, UniProt P15709)
T2 construct: made in house; host or cells: Salmonella typhimurium TA1538 (cytosolic fraction, enzyme not purified)
T2 sequence (P15709 1-284): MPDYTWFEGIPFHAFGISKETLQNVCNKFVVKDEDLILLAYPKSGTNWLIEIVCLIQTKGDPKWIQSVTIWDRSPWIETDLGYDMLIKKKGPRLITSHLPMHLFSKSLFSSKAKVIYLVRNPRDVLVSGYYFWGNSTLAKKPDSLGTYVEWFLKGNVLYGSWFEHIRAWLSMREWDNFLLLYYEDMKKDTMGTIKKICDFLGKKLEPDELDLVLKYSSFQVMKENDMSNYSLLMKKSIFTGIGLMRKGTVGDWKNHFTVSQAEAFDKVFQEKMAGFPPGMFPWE
Protocol: as §1, §2, §3

rSult2b1 = target: T3, rSult2b1 (Rattus norvegicus, UniProt Q29YR5)
T3 construct: made in house; host or cells: Salmonella typhimurium TA1538 (cytosolic fraction, enzyme not purified)
T3 sequence (Q29YR5 1-340): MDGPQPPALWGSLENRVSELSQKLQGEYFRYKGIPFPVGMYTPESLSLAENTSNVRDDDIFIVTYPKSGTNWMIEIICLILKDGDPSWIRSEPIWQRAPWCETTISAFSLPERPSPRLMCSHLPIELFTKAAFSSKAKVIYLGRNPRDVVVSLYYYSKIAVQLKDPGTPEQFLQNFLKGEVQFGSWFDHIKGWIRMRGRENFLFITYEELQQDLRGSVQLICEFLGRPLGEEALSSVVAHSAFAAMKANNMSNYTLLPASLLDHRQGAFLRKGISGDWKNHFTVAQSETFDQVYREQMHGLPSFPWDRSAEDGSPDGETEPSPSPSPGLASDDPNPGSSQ
Protocol: as §1, §2, §3

rSult1c1 = target: T4, rSult1c1 (Rattus norvegicus, UniProt P50237)
T4 construct: made in house; host or cells: Salmonella typhimurium TA1538 (cytosolic fraction, enzyme not purified)
T4 sequence (P50237 whole entry): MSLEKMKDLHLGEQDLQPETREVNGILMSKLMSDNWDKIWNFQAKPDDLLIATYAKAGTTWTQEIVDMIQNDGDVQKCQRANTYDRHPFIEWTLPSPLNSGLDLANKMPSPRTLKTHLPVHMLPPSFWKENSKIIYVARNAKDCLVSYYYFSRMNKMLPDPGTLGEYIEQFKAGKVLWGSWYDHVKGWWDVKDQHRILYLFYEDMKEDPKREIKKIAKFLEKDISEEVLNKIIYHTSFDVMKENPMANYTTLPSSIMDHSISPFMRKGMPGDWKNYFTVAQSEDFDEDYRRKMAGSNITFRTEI
Protocol: as §1, §2, §3

SMILES: OCc1ccco1 [FFA, furfuryl alcohol]
- Rate of N6-MF-A formation (rSult2a3; 0.1 mM FFA): 48.3 ± 1.3 fmol N ^6-MF-A/mg/min
- Rate of N6-MF-A formation (rSult2a3; 1 mM FFA): 461 ± 8 fmol N ^6-MF-A/mg/min
- Rate of N6-MF-A formation (rSult2a3; 10 mM FFA): 3,420 ± 30 fmol N ^6-MF-A/mg/min
- Rate of N6-MF-A formation (rSult2a1; 0.1 mM FFA): <18 fmol N ^6-MF-A/mg/min
- Rate of N6-MF-A formation (rSult2a1; 1 mM FFA): 24.8 ± 1.4 fmol N ^6-MF-A/mg/min
- Rate of N6-MF-A formation (rSult2a1; 10 mM FFA): 228 ± 7 fmol N ^6-MF-A/mg/min
- Rate of N6-MF-A formation (rSult2b1; 0.1 mM FFA): <18 fmol N ^6-MF-A/mg/min
- Rate of N6-MF-A formation (rSult2b1; 1 mM FFA): <20 fmol N ^6-MF-A/mg/min
- Rate of N6-MF-A formation (rSult2b1; 10 mM FFA): <44 fmol N ^6-MF-A/mg/min
- Rate of N6-MF-A formation (rSult1c1; 0.1 mM FFA): <18 fmol N ^6-MF-A/mg/min
- Rate of N6-MF-A formation (rSult1c1; 1 mM FFA): 97.8 ± 2.3 fmol N ^6-MF-A/mg/min
- Rate of N6-MF-A formation (rSult1c1; 10 mM FFA): 492 ± 13 fmol N ^6-MF-A/mg/min
